In patent US7671061B2, “Methods and compositions for treating pain” (Hydra Biosciences, Inc., priority 2005, dated 2010):
Blank lines part the entries; values can stand above or below the compound they belong to.

Molecular target: T1, hTRPA1 (Homo sapiens, UniProt O75762, K186N)
T1 construct: expressed in transfected cells; host or cells: HEK293/TREx (Invitrogen), induced with tetracycline
Experiment: High throughput Ca2+ fluorescence (Fluo4) assay, AITC stimulation
Assay type: cell-based
Conditions: Table 2; read-out: hTRPA1 Fluor IC50
How it was run: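 Read-out is Fluo4 fluorescence, proportional to [Ca2+]i, over ~3 min after AITC challenge, following 2 min compound pre-exposure in HEK293/TREx cells induced with 1 μg/ml tetracycline. Dye: 1 μM, 60 min, room temperature.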

T1 sequence (O75762 whole entry K186N): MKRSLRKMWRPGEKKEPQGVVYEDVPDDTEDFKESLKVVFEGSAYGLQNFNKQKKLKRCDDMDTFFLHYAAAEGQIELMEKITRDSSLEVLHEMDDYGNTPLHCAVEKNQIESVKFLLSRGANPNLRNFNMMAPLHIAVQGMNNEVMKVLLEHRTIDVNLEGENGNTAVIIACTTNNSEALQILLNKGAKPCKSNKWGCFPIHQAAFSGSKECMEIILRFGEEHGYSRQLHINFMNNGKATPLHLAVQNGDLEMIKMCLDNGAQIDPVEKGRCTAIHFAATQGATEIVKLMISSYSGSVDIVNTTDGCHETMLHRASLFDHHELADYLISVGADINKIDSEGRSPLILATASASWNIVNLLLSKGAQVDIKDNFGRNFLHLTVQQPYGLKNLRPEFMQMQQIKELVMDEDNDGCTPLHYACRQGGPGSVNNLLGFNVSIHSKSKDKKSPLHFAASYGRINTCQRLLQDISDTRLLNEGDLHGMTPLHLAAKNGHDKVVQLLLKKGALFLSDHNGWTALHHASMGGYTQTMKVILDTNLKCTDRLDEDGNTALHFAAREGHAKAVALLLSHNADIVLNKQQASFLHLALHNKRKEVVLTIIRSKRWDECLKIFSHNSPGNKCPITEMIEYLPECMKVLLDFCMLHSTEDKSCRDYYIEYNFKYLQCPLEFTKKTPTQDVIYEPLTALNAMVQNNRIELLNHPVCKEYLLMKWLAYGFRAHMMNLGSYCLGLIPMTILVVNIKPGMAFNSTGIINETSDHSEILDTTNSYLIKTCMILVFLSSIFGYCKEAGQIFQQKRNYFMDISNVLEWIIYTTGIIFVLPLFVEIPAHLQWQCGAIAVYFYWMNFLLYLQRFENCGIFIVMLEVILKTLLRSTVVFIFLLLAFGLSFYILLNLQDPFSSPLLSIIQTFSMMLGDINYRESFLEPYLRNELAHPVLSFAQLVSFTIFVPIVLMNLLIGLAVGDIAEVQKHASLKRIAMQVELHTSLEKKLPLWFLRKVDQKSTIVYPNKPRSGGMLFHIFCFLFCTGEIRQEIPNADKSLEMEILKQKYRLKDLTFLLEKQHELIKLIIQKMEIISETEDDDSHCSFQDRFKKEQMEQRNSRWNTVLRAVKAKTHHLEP

SMILES: CC(C(=O)Nc1cccc(Cl)c1)n1cnc2c1c(=O)n(C)c(=O)n2C (centres unmarked) [Compound 297]
IC50: > 10 µM

SMILES: Cc1cc(Cl)ccc1NC(=O)Cn1cnc2c1c(=O)n(C)c(=O)n2C [Compound 298]
IC50: > 10 µM

SMILES: CC(C(=O)N(C)c1ccccc1)n1cnc2c1c(=O)n(C)c(=O)n2C (centres unmarked) [Compound 301]
IC50: > 10 µM

SMILES: CC(C(=O)Nc1ccccc1)n1cnc2c1c(=O)n(C)c(=O)n2C (centres unmarked) [Compound 302]
IC50: > 10 µM

SMILES: COc1ccccc1NC(=O)C(C)n1cnc2c1c(=O)n(C)c(=O)n2C (centres unmarked) [Compound 303]
IC50: > 10 µM

SMILES: Cn1c(=O)c2c(ncn2CC(=O)Nc2ccc(Cl)cc2F)n(C)c1=O [Compound 304]
IC50: ≤ 5 µM

SMILES: Cc1ccc(NC(=O)Cn2cnc3c2c(=O)n(C)c(=O)n3C)cc1F [Compound 306]
IC50: > 10 µM

SMILES: Cn1c(=O)c2c(ncn2CC(=O)NCC(c2ccco2)N2CCCC2)n(C)c1=O (centres unmarked) [Compound 308]
IC50: > 10 µM

SMILES: CC(=O)c1ccccc1NC(=O)Cn1cnc2c1c(=O)n(C)c(=O)n2C [Compound 309]
IC50: > 10 µM

SMILES: CC(NC(=O)Cn1cnc2c1c(=O)n(C)c(=O)n2C)c1ccc2c(c1)OCCO2 (centres unmarked) [Compound 310]
IC50: > 10 µM

SMILES: CSc1ccccc1NC(=O)CN(C)C(=O)Cn1cnc2c1c(=O)n(C)c(=O)n2C [Compound 311]
IC50: > 10 µM

SMILES: Cn1c(=O)c2c(ncn2CC(=O)NCC(c2cccs2)N2CCCC2)n(C)c1=O (centres unmarked) [Compound 312]
IC50: > 10 µM

SMILES: CC(C(=O)Nc1cc(Cl)cc(Cl)c1)n1cnc2c1c(=O)n(C)c(=O)n2C (centres unmarked) [Compound 314]
IC50: ≤ 10 µM

SMILES: CSc1ccccc1NC(=O)Cn1cnc2c1c(=O)n(C)c(=O)n2C [Compound 316]
IC50: > 10 µM

SMILES: Cn1c(=O)c2c(ncn2CC(=O)NCC(c2ccc(F)cc2)N2CCOCC2)n(C)c1=O (centres unmarked) [Compound 317]
IC50: > 10 µM

SMILES: CC(C(=O)Nc1cccc(C(F)(F)F)c1)n1cnc2c1c(=O)n(C)c(=O)n2C (centres unmarked) [Compound 318]
IC50: > 10 µM

SMILES: COc1ccc(CNC(=O)Cn2cnc3c2c(=O)n(C)c(=O)n3C)cc1OC [Compound 319]
IC50: > 10 µM

SMILES: Cn1c(=O)c2c(ncn2CC(=O)NCCOc2ccc(C(C)(C)C)cc2)n(C)c1=O [Compound 320]
IC50: ≤ 10 µM

SMILES: Cn1c(=O)c2c(ncn2CC(=O)NCC(c2ccccc2)N2CCCC2)n(C)c1=O (centres unmarked) [Compound 321]
IC50: > 10 µM

SMILES: CN(CCCNC(=O)Cn1cnc2c1c(=O)n(C)c(=O)n2C)c1ccccc1 [Compound 322]
IC50: > 10 µM

SMILES: Cc1cc(C)n(CCCNC(=O)Cn2cnc3c2c(=O)n(C)c(=O)n3C)n1 [Compound 323]
IC50: > 10 µM

SMILES: CN(CCOc1ccccc1)C(=O)Cn1cnc2c1c(=O)n(C)c(=O)n2C [Compound 324]
IC50: ≥ 20 µM

SMILES: CC(NC(=O)Cn1cnc2c1c(=O)n(C)c(=O)n2C)c1ccc(-n2ccnc2)cc1 (centres unmarked) [Compound 325]
IC50: ≥ 20 µM

SMILES: Cn1c(=O)c2c(ncn2CC(=O)Nc2ccc3c(c2)OCCCO3)n(C)c1=O [Compound 326]
IC50: ≤ 10 µM

SMILES: CC(C(=O)Nc1ccc(F)cc1)n1cnc2c1c(=O)n(C)c(=O)n2C (centres unmarked) [Compound 327]
IC50: > 10 µM

SMILES: Cc1cccc(NC(=O)C(C)n2cnc3c2c(=O)n(C)c(=O)n3C)c1 (centres unmarked) [Compound 328]
IC50: ≥ 30 µM

SMILES: Cc1cc(C)c(NC(=O)Cn2cnc3c2c(=O)n(C)c(=O)n3C)c(Cl)c1 [Compound 330]
IC50: > 10 µM

SMILES: CC(C(=O)Nc1ccc2c(c1)OCO2)n1cnc2c1c(=O)n(C)c(=O)n2C (centres unmarked) [Compound 331]
IC50: > 10 µM

SMILES: CC(C)C(C)NC(=O)Cn1cnc2c1c(=O)n(C)c(=O)n2C (centres unmarked) [Compound 332]
IC50: > 10 µM

SMILES: CC(C(=O)Nc1ccccc1F)n1cnc2c1c(=O)n(C)c(=O)n2C (centres unmarked) [Compound 334]
IC50: > 10 µM

SMILES: Cn1c(=O)c2c(ncn2CC(=O)NCCc2c[nH]c3ccccc23)n(C)c1=O [Compound 335]
IC50: > 10 µM

SMILES: CC(C)N(C(=O)Cn1cnc2c1c(=O)n(C)c(=O)n2C)c1ccccc1 [Compound 336]
IC50: > 10 µM

SMILES: Cn1c(=O)c2c(ncn2CC(=O)NCc2ccccc2CN2CCOCC2)n(C)c1=O [Compound 337]
IC50: > 10 µM

SMILES: Cn1c(=O)c2c(ncn2CC(=O)Nc2ccccc2C(=O)NC2CC2)n(C)c1=O [Compound 338]
IC50: > 10 µM

SMILES: Cc1nn(Cc2ccccc2)c(C)c1CNC(=O)Cn1cnc2c1c(=O)n(C)c(=O)n2C [Compound 339]
IC50: > 10 µM

SMILES: Cn1c(=O)c2c(ncn2CC(=O)Nc2ccnn2C2CCCC2)n(C)c1=O [Compound 340]
IC50: > 10 µM

SMILES: Cn1c(=O)c2c(ncn2CC(=O)Nc2ncc(Cl)cc2Cl)n(C)c1=O [Compound 341]
IC50: > 10 µM

SMILES: CN(Cc1ccccc1N1CCOCC1)C(=O)Cn1cnc2c1c(=O)n(C)c(=O)n2C [Compound 342]
IC50: > 10 µM

SMILES: Cn1c(=O)c2c(ncn2CC(=O)NC(c2ccc(F)cc2)c2cccs2)n(C)c1=O (centres unmarked) [Compound 343]
IC50: > 10 µM

SMILES: CC(C)C(NC(=O)Cn1cnc2c1c(=O)n(C)c(=O)n2C)c1ccc2c(c1)OCCCO2 (centres unmarked) [Compound 345]
IC50: > 10 µM

SMILES: COC(=O)c1ccc(C)c(NC(=O)Cn2cnc3c2c(=O)n(C)c(=O)n3C)c1 [Compound 346]
IC50: ≥ 30 µM

SMILES: CC1CCCC(NC(=O)Cn2cnc3c2c(=O)n(C)c(=O)n3C)C1C (centres unmarked) [Compound 349]
IC50: > 10 µM

SMILES: Cn1c(=O)c2c(ncn2CC(=O)Nc2ccccc2SCc2ccccc2)n(C)c1=O [Compound 351]
IC50: > 10 µM

SMILES: Cn1c(=O)c2c(ncn2CC(=O)NC(c2ccccc2)c2cccs2)n(C)c1=O (centres unmarked) [Compound 352]
IC50: > 10 µM

SMILES: Cc1nc(-c2ccc(CCNC(=O)Cn3cnc4c3c(=O)n(C)c(=O)n4C)cc2)cs1 [Compound 353]
IC50: ≤ 5 µM

SMILES: Cn1c(=O)c2c(ncn2CC(=O)Nc2ccc(N3CCCCCC3)cc2)n(C)c1=O [Compound 354]
IC50: ≤ 5 µM

SMILES: Cc1cccc(NC(=O)c2ccccc2NC(=O)Cn2cnc3c2c(=O)n(C)c(=O)n3C)c1 [Compound 355]
IC50: ≥ 20 µM

SMILES: Cc1c(C#N)c(NC(=O)Cn2cnc3c2c(=O)n(C)c(=O)n3C)n(Cc2ccccc2)c1C [Compound 356]
IC50: > 10 µM

SMILES: Cn1c(=O)c2c(ncn2CC(=O)NC(CN2CCOCC2)c2ccccc2)n(C)c1=O (centres unmarked) [Compound 357]
IC50: > 10 µM

SMILES: Cc1ccccc1NC(=O)Cn1cnc2c1c(=O)n(C)c(=O)n2C [Compound 358]
IC50: > 10 µM

SMILES: COC(=O)c1ccc(NC(=O)Cn2cnc3c2c(=O)n(C)c(=O)n3C)cc1 [Compound 363]
IC50: ≤ 10 µM

SMILES: CCOC(=O)c1ccc(NC(=O)Cn2cnc3c2c(=O)n(C)c(=O)n3C)cc1 [Compound 366]
IC50: ≤ 5 µM

Results, then the compound that gave them:

IC50: > 10 µM
SMILES: CCc1cccc(C)c1NC(=O)Cn1cnc2c1c(=O)n(C)c(=O)n2C [Compound 359]

IC50: ≤ 10 µM
SMILES: CC(=O)c1ccc(NC(=O)Cn2cnc3c2c(=O)n(C)c(=O)n3C)cc1 [Compound 360]

IC50: > 10 µM
SMILES: COc1ccccc1NC(=O)Cn1cnc2c1c(=O)n(C)c(=O)n2C [Compound 361]

IC50: > 10 µM
SMILES: CCOC(=O)c1ccccc1NC(=O)Cn1cnc2c1c(=O)n(C)c(=O)n2C [Compound 362]

IC50: > 10 µM
SMILES: COc1ccc(CNC(=O)Cn2cnc3c2c(=O)n(C)c(=O)n3C)cc1 [Compound 364]

IC50: > 10 µM
SMILES: COC(=O)c1ccccc1NC(=O)Cn1cnc2c1c(=O)n(C)c(=O)n2C [Compound 365]

IC50: > 10 µM
SMILES: Cn1c(=O)c2c(ncn2CC(=O)Nc2cccnc2)n(C)c1=O [Compound 367]

IC50: > 10 µM
SMILES: Cn1c(=O)c2c(ncn2CC(=O)NCc2ccco2)n(C)c1=O [Compound 368]

IC50: > 10 µM
SMILES: Cn1c(=O)c2c(ncn2CC(=O)Nc2ccccn2)n(C)c1=O [Compound 369]

IC50: > 10 µM
SMILES: Cc1ccnc(NC(=O)Cn2cnc3c2c(=O)n(C)c(=O)n3C)c1 [Compound 370]

IC50: ≥ 30 µM
SMILES: Cc1ccc(NC(=O)Cn2cnc3c2c(=O)n(C)c(=O)n3C)nc1 [Compound 372]

IC50: > 10 µM
SMILES: COc1ccc(C)cc1NC(=O)Cn1cnc2c1c(=O)n(C)c(=O)n2C [Compound 373]

IC50: ≥ 20 µM
SMILES: Cc1ccc(Cl)cc1NC(=O)Cn1cnc2c1c(=O)n(C)c(=O)n2C [Compound 374]

IC50: > 10 µM
SMILES: Cc1cc(C)c(NC(=O)Cn2cnc3c2c(=O)n(C)c(=O)n3C)c(C)c1 [Compound 375]

IC50: > 10 µM
SMILES: CCCC(C)NC(=O)Cn1cnc2c1c(=O)n(C)c(=O)n2C (centres unmarked) [Compound 376]

IC50: > 10 µM
SMILES: Cn1c(=O)c2c(ncn2CC(=O)NCc2ccc3c(c2)OCO3)n(C)c1=O [Compound 377]

IC50: > 10 µM
SMILES: COC(=O)C(CC(C)C)NC(=O)Cn1cnc2c1c(=O)n(C)c(=O)n2C (centres unmarked) [Compound 378]

IC50: > 10 µM
SMILES: CC(CCc1ccccc1)NC(=O)Cn1cnc2c1c(=O)n(C)c(=O)n2C (centres unmarked) [Compound 379]

IC50: > 10 µM
SMILES: CC(=O)c1cccc(NC(=O)Cn2cnc3c2c(=O)n(C)c(=O)n3C)c1 [Compound 380]

IC50: ≤ 10 µM
SMILES: CCc1sc(NC(=O)Cn2cnc3c2c(=O)n(C)c(=O)n3C)nc1-c1ccccc1 [Compound 381]

IC50: > 10 µM
SMILES: CCC(C)(C)NC(=O)Cn1cnc2c1c(=O)n(C)c(=O)n2C [Compound 382]

IC50: > 10 µM
SMILES: CCc1cccc(CC)c1NC(=O)Cn1cnc2c1c(=O)n(C)c(=O)n2C [Compound 383]

IC50: ≤ 10 µM
SMILES: Cn1c(=O)c2c(ncn2CC(=O)Nc2ccccc2Sc2ccccc2)n(C)c1=O [Compound 384]

IC50: > 10 µM
SMILES: CC(C)NC(=O)c1ccccc1NC(=O)Cn1cnc2c1c(=O)n(C)c(=O)n2C [Compound 385]

IC50: ≤ 5 µM
SMILES: Cn1c(=O)c2c(ncn2CC(=O)Nc2cc(F)cc(F)c2)n(C)c1=O [Compound 386]
